The values that follow come from PMC8538057, “Direct Delivery of ANA-TA9, a Peptide Capable of Aβ Hydrolysis, to the Brain by Intranasal Administration” (Pharmaceutics, 2021).

A short description of data set [1]: Storage stability of ANA-TA9 at −40 °C (preliminary study). To be noted: storage at −40 °C (plasma samples). In kind it is physicochemical. How it is done:
The rats were anesthetized through i.p. administration of a mixture of medetomidine (0.15 mg/kg body weight), midazolam (2 mg/kg body weight), and butorphanol (2.5 mg/kg body weight). The right femoral artery was cannulated with polyethylene tubing. ANA-TA9 was injected into the left femoral vein of 3 rats at a dose of 2 mg (200 μL of a 10 mg/mL PBS solution). Those 3 rats nasally received the same dose of ANA-TA9 (20 μL of a 100 mg/mL PBS solution) under anesthesia. For nasal administration, a micropipette was used. After i.n. administration, the animals were kept conscious in a rat cage (KN-326-III; Natsume, Tokyo, Japan) throughout the experiment after recovery from anesthesia. The PBS solution of ANA-TA9 (12 mg/mL) was infused intravenously for 10 min at a 25 µL/min flow rate. The infused dose was 3 mg/rat. At the appropriate time intervals after administration, blood samples were taken, heparinized, and immediately cooled down on ice, followed by centrifugation at 15,000 rpm for 5 min to obtain the plasma. The plasma samples were stored at −40 °C until the assay. In the preliminary study, it was confirmed that ANA-TA9 stored at −40 °C is stable for at least 2 weeks.

Data set [2] in a line: Disposition and nasal absorption of ANA-TA9 in rats (plasma pharmacokinetics after i.v. bolus, i.v. infusion and i.n. administration). In kind it is in vivo, Male Wistar/ST rats. To be noted: rat. The method, then: For i.n. administration, ANA-TA9 was dissolved in PBS at a concentration of 100 mg/mL. For intravenous (i.v.) administration, the nasal solution was diluted to 10 mg/mL with PBS. For i.v. infusion, ANA-TA9 was dissolved in PBS to a concentration of 12 mg/mL. The rats were anesthetized through i.p. administration of a mixture of medetomidine (0.15 mg/kg body weight), midazolam (2 mg/kg body weight), and butorphanol (2.5 mg/kg body weight). The right femoral artery was cannulated with polyethylene tubing. ANA-TA9 was injected into the left femoral vein of 3 rats at a dose of 2 mg (200 μL of a 10 mg/mL PBS solution). Those 3 rats nasally received the same dose of ANA-TA9 (20 μL of a 100 mg/mL PBS solution) under anesthesia. For nasal administration, a micropipette was used. After i.n. administration, the animals were kept conscious in a rat cage ([…], Tokyo, Japan) throughout the experiment after recovery from anesthesia. The PBS solution of ANA-TA9 (12 mg/mL) was infused intravenously for 10 min at a 25 μL/min flow rate. The infused dose was 3 mg/rat. At the appropriate time intervals after administration, blood samples were taken, heparinized, and immediately cooled down on ice, followed by centrifugation at 15,000 rpm for 5 min to obtain the plasma. The plasma samples were stored at -40 °C until the assay. In the preliminary study, it was confirmed that ANA-TA9 stored at -40 °C is stable for at least 2 weeks. The plasma and brain concentrations of ANA-TA9 were determined by LC/MS, LC-20A, and LCMS-2020 (SHIMADZU, Kyoto, Japan). Briefly, 100 μL of the plasma were mixed with 1000 μL of methanol. […] To the dissected brain tissue, 100 μL of ice-cold purified water were added, and the mixture was homogenized under ice-cold conditions. To the homogenate, 4000 μL of ice-cold methanol were added. […] The residues were reconstituted with 100 μL of the mobile phase of the chromatography. In the preliminary study, it was confirmed that the effect of rapid degradation of ANA-TA9 on the assay could be excluded by the treatment on the blood and brain tissues mentioned above. Chromatographic separation was performed using a C18 analytical column (TSKgel ODS 100V, 3 μm, 2.0 mm × 100 mm; TOSOH, Tokyo, Japan). The mobile phase was acetonitrile/0.1% acetic acid (10/90), and the flow rate was 0.2 mL/min. ANA-TA9 eluting from the column was detected with mass spectrometry under the positive mode. Nitrogen gas was used for nebulization at a flow rate of 1.5 L/min. Other conditions (temperature and voltage) were set as the default. The calibration curves of ANA-TA9 in the plasma and the brain were determined. […] The area under the plasma concentration-time profile (AUC) after i.v. and i.n. administration was obtained based on the linear trapezoidal rules. In the case of the i.n. application, the concentrations of the last three samples were extrapolated to estimate the area after the last sampling time. The dose was divided by the AUC to obtain the clearance. After normalization of the AUC with each dose, the bioavailability was calculated by the division of the normalized i.n. AUC by the normalized AUC after i.v. infusion.

[3] abbreviates: male, Wistar/ST, in vivo, inhaled or intranasal, 2 mg.
[4] abbreviates: male, Wistar/ST, in vivo, iv, 2 mg.
Where [5] appears, read: male, Wistar/ST, in vivo, iv, 3 mg/animal.

Ends that are not written are not given here. Some results are limits rather than exact numbers.

With SKGQAYRMI [ANA-TA9], in data set [1], the “time for which ANA-TA9 stored at −40 °C is stable” value is “at least 2 weeks”. For the same sequence, the bioavailability in data set [2] (male, Wistar/ST, plasma, inhaled or intranasal, i.n. 2 mg, dose-normalized i.n. AUC divided by normalized AUC after i.v. infusion, mean ± S.E. of three experiments, read-out: F (bioavailability), i.n.) was found to be 36 ± 4.65%. Further, in data set [2] (setting [3]), the concentration peaked (Cmax) at 863 ± 187 ng/mL and the Tmax was 1 min. In data set [2] (setting [4]), this sequence had a half-life of less than 1 min, a level at 0.5 min of 575 ± 26 ng/mL and a level at 1 min of 111 ± 10 ng/mL. In data set [2] (setting [5]), this sequence gave an AUC of 215 ng·h/mL and a clearance of 260 ± 13.8 mL/min. For the same sequence, the level at 0.25 h in data set [2] (male, Wistar/ST, in vivo, iv, 3 mg/rat) was determined as 172 ± 121 ng/mL. In data set [2] (i.n. 2 mg (20 μL of 100 mg/mL PBS solution), plasma, trapezoidal with extrapolation, mean ± S.E. of three experiments), the “AUC, i.n.” value is 3.10 ± 0.782 µg·min/mL. For the same sequence, the “plasma concentration at 20 min (after end of i.v. infusion)” value in data set [2] (in vivo, iv) is listed as “below the limit of detection”.

Usually bioavailability stands for dose-corrected exposure relative to a reference, in per cent. What is called Cmax is the highest concentration seen after dosing. The term Tmax denotes the time at which the peak concentration occurs. In general, half-life refers to the time in which the quantity being followed falls by half. A word on the AUC: it is the area under the concentration-time curve, a measure of exposure. Read a high AUC as high exposure.
